For data set [1], the system named is multidrug resistant N6ADR cells. Description: N6ADR tumor volume in mice (Example 2, FIG. 9). Conditions: for effect on tumor volume with paclitaxel (chemosensitization): antibody dosed about 1-4 hrs prior to paclitaxel; for effect on tumor volume without paclitaxel: antibody on day 0, 4, 7, 11, no chemotherapeutic agent. In kind it is in vivo. As for the experimental part: N6ADR cells were injected into a cohort of 6 mice per test group prior to administration of the indicated antibodies. The antibodies were administered once palpable tumors reached a size of about 100-150 mm^3 (about 7 days after injection of tumor cells). Antibodies were administered on day 0, day 4, day 7, and day 11. Tumor volumes were measured and are plotted. Panel A: 15D3/MRK16 monoclonal anti-MDR1 antibody. Panel B: KT14/MRK16 monoclonal anti-CD47 antibody. Panel C: Co-administration of 15D3/MRK16 monoclonal anti-MDR1 antibody and KT14/MRK16 monoclonal anti-CD47 antibody. Panel D: KbisP1.1 antibody.
The indicated antibodies were administered with or without the chemotherapeutic agent paclitaxel. Antibody was dosed about 1-4 hrs prior to Paclitaxel.

In data set [2] the test system is human red blood cells (RBCs). Description: Binding to human erythrocytes. Conditions: FIG. 22A; in contrast to anti-CD47 5F9.
The subject of another data set is cynomolgus RBCs. Description: Binding to cynomolgus erythrocytes. Conditions: FIG. 22B; in contrast to anti-CD47 5F9.
Another data set deals with N6/ADR cells. Put plainly: Vincristine cytotoxicity assay. The following applies: Homo sapiens; Table 5; vincristine titrated with antibody at 100 μg/mL (2× final concentration); 72 hr. In kind it is cell-based. The procedure: Cytotoxicity Assays. The effect of antibodies on vincristine cytotoxicity was evaluated on N6/ADR, a doxorubicin-selected, B1-positive variant of the human acute lymphoblastic leukemia (ALL) cell line, NALM6. Cells were plated in 0.05 mL of Assay Media (RPMI-1640+10% FBS) at 5000 cells/well in white flat bottom 96-well tissue culture plates. Vincristine was prepared at 2× final assay concentration by serial dilution from 200 uM in assay media containing test antibodies or control antibodies at 100 μg/mL (2× final concentration), or valspodar, a small molecule B1 inhibitor at 7 uM (2× final concentration). An equivalent volume (0.05 mL) of the vincristine/antibody mixture was added to the N6/ADR cells in 96-well plates. The plates were then incubated at 37° C., in 5% CO2. After 72 hr plates were equilibrated to room temperature and cell viability assessed using Promega® CellTiter-Glo® Luminescent Cell Viability Assay according to the manufacturer's recommended protocol. Luminescence was measured on a Molecular Devices® FlexStation® 3 Multi-Mode Microplate Reader and data analyzed using GraphPad Prism 8.0 software.

Another data set concerns NALM6 cells. Put plainly: NALM6 subcutaneous tumors in SCID-Beige mice. The following applies: paclitaxel 5 mg/kg and 20 mg/kg. In kind it is in vivo. The procedure:
NALM6 subcutaneous tumors: Mice were randomized into three groups of five mice each—(i) Control vehicle, (ii) 5 mg/kg and (iii) 20 mg/kg of paclitaxel.

Another data set relates to NALM6 ADR cells. The text has this: Cells: NALM6 (ATCC) and NALM6 ADR (ATCC), B cell precursor lymphoblastic leukemia cell lines used in this study. NALM6 ADR is a multidrug resistant cell line derived from NALM6 cells.
Mice: Sixty-five 5-6-weeks-old female SCID-Beige mice (Charles River) were used in this study.
Inoculation-2×10^6 cells diluted in PBS:Matrigel (1:1) were subcutaneously injected using a 27G insulin syringe into fifty anesthetized 5-6-week-old female SCID-Beige mice under sterile conditions.
NALM6 ADR subcutaneous tumors: Mice were randomized into nine groups of five mice each—(i) Control isotype IgG1 15 mg/kg, (ii) Control isotype IgG1 15 mg/kg and 5 mg/kg of paclitaxel, (iii) Control isotype IgG1 15 mg/kg and 20 mg/kg of paclitaxel, (iv) BisP1.1 15 mg/kg, (v) BisP1.1 15 mg/kg and 5 mg/kg of paclitaxel, (vi) BisP1.1 15 mg/kg and 20 mg/kg of paclitaxel (vii) Valspodar 20 mg/kg (viii) Valspodar 20 mg/kg and 5 mg/kg of paclitaxel and (ix) Valspodar 20 mg/kg and […]. Antibody, Valspodar and paclitaxel were dosed intraperitoneally twice a week for four consecutive weeks. Antibody/valspodar were injected at least 4 hours prior to paclitaxel injection. Paclitaxel preparation: Since paclitaxel is poorly soluble, a master stock of 50 mg/ml was prepared in absolute ethanol:Kolliphor (1:1). Prior to injection the stock was diluted to recommended doses of 5 mg/kg or 20 mg/kg with PBS maintaining a ratio of (1:16).
Measurements: Tumor measurements were done thrice a week using a calibrated Vernier Caliper and tumor volume calculated as per the formula ½*L*S*S where L is the long axis and s is the short axis of the tumor. Body weights were recorded before treatment started and were continuously monitored throughout the study. Animal survival was evaluated from the first day of treatment until death. To avoid suffering, mice were euthanized when turning moribund according to the above-mentioned predefined criteria: rapid weight loss, loss of ability to ambulate, labored respiration, or inability to drink or feed.
Statistics: Tumor volume and body weights were compared between different experimental groups using exact one-way analysis of variance (ANOVA). Kaplan-Meier survival curves were compared between different treatment groups using the log-rank (Mantel-Cox) test. Statistical analyses were performed using Graph Pad Prism (GraphPad, San Diego, CA, USA) software. The level of significance was set at p<0.05 for all analyses.

Data set [3] in a line: Single dose cynomolgus monkey toxicity study. Type of data set: in vivo, cynomolgus monkeys (Macaca fascicularis). The following applies: post infusion; paclitaxel 2 mg/kg.
Description: Fifteen cynomolgus monkeys (Macaca fascicularis) were enrolled in a single dose study to evaluate KbisP1.1 toxicity.
Data set [4] concerns the target T1, PDL1 (293T cells overexpressing PDL1) (Homo sapiens, UniProt Q9NZQ7).
T1 construct: expressed in transfected cells; host or cells: 293T
Description: PDL1 binding using 293T cells overexpressing PDL1.

Data set [5] concerns the target MDR1 (293T cells overexpressing MDR1) (Homo sapiens, UniProt P08183).
Description: Binding specificity of the mAbs, Fab and Bispecific IgG1 was tested by FACS using 293T cell lines naturally expressing CD47, 293T naïve cells overexpressing human ABCB1 target, 293T naïve cells having ABCB1 knocked down using Lentiviral RNA vectors, CD47 knock out 293T cells and CD47 knock out 293T cells overexpressing human ABCB1. […] The cells were washed three times with FACS buffer (PBS containing 0.5% BSA). Alexa647 labeled goat anti-human antibody was added as a secondary antibody, and the samples were incubated on ice for another 1 hour. Samples were washed and analyzed using a BD FACS Canto (BD Biosciences).
FACS measurement for MDR1 binding was performed as described in Example 1.

Like-named read-outs stand apart in the source and are kept apart here.

T1 sequence (Q9NZQ7 19-290): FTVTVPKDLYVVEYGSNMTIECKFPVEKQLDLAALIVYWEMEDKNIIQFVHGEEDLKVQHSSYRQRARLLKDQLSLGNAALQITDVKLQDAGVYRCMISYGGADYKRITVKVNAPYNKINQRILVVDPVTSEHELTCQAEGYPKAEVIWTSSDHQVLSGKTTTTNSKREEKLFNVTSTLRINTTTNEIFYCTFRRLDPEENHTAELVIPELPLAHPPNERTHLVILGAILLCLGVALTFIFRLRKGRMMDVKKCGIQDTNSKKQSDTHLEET

Regarding “5F9/MRK16: anti-CD47 antibody with two 5F9 heavy chains and two MRK16 light chains”, in data set [1], the “effect on tumor volume with paclitaxel (chemosensitization)” value is “not observed” and the “effect on tumor volume without paclitaxel” value is listed as “no significant effect on tumor volume”. Also, the “binding to human erythrocytes” value in [2] was “does not significantly bind”. Further, the “binding to cynomolgus erythrocytes” value in the data set with cynomolgus RBCs is “does not significantly bind”.

As for “15D3/MRK16: anti-MDR1 antibody with two 15D3 heavy chains and two MRK16 light chains”, in data set [1], the “effect on tumor volume with paclitaxel (chemosensitization)” value is given as “rendered the chemoresistant N6ADR cells sensitive to paclitaxel” and the “effect on tumor volume without paclitaxel” value was “no significant effect on tumor volume”.

As for `CC[C@]1(O)C[C@H]2CN(CCc3c([nH]c4ccccc34)[C@@](C(=O)OC)(c3cc4c(cc3OC)N(C=O)[C@H]3[C@@](O)(C(=O)OC)[C@H](OC(C)=O)[C@]5(CC)C=CCN6CC[C@]43[C@@H]65)C2)C1` [Vincristine alone, vincristine], in the data set with N6/ADR cells, the IC50 stood at 543 nM.

For the molecule `CC(=O)O[C@H]1C(=O)[C@@]2(C)[C@H]([C@H](OC(=O)c3ccccc3)[C@]3(O)C[C@H](OC(=O)[C@H](O)[C@@H](NC(=O)c4ccccc4)c4ccccc4)C(C)=C1C3(C)C)[C@]1(OC(C)=O)CO[C@@H]1C[C@@H]2O` [paclitaxel, reference compound], the tumor growth inhibition entry is “significant (p<0.0001) tumor growth inhibition” with NALM6 cells, “significantly less tumor growth inhibition” in the data set on NALM6 ADR cells (paclitaxel 5 mg/kg) and “modest inhibition” with NALM6 ADR cells (paclitaxel 20 mg/kg). In data set [3], the “erythema at the infusion site” value is “minimal erythema”.

On to `C/C=C/C[C@@H](C)C(=O)[C@H]1C(=O)N[C@@H](C(C)C)C(=O)N(C)CC(=O)N(C)[C@@H](CC(C)C)C(=O)N[C@@H](C(C)C)C(=O)N(C)[C@@H](CC(C)C)C(=O)N[C@@H](C)C(=O)N[C@H](C)C(=O)N(C)[C@@H](CC(C)C)C(=O)N(C)[C@@H](CC(C)C)C(=O)N(C)[C@@H](C(C)C)C(=O)N1C` [valspodar, reference compound], for which, in the data set with NALM6 ADR cells (valspodar result in combination with paclitaxel 20 mg/kg), the body weight result was “significant reduction in body weight”.

atezolizumab: a half-maximal response in data set [4] (EC50) required 0.29 nM.

As to necitumumab, the “binding to MDR1 by FACS” value in data set [5] is on record as “did not show significant binding”.

The values are drawn from US12331121B2, “Efflux pump-cancer antigen multi-specific antibodies and compositions, reagents, kits and methods related thereto” (William Robert Arathoon Living Trust Dated August 29, 2016, priority 2019, dated 2025).
